From ChEMBL document CHEMBL5344448, “Amide Alkaloids as Privileged Sources of Senomodulators for Therapeutic Purposes in Age-Related Diseases” (J Nat Prod, 2024)

How the values were obtained:
[1] = system: WI-38; assay: Induction of senescence in human WI-38 cells; format: functional, cell-based
[2] = Inhibition of rat liver microsome ACAT; format: microsomes

Row | Compound | IC50 [1] [µM] | IC50 [2] [µM]
1 | O=C(/C=C/C=C/CC/C=C/c1ccc2c(c1)OCO2)N1CCCCC1 [DEHYDROPIPERNOLINE] | 2.1 | 90
2 | CC(C)CNC(=O)/C=C/C=C/CCCCCC/C=C/c1ccc2c(c1)OCO2 [GUINEENSINE] | 8.9 | 3
3 | CCCCC/C=C/C=C/C(=O)NCC(C)C [PELLITORIN] | 0.67 | 
4 | O=C(/C=C/C=C/c1ccc2c(c1)OCO2)N1CCCCC1 [PIPERINE] | 8.8 | 
5 | COc1cc(/C=C/C(=O)N2CCC=CC2=O)cc(OC)c1OC [PIPLARTINE] | 8 | 
6 | CC(C)CNC(=O)/C=C/C=C/CCCC/C=C/c1ccc2c(c1)OCO2 [RETROFRACTAMIDE B] | 2 | 
